What was measured:
[1] = system: airway neutrophilia induced by exposure to tobacco smoke; test: Guinea pig respiratory dysfunction model with airway neutrophilia induced by exposure to tobacco smoke; format: in vivo, Hartley guinea pigs; details: oral 10 mg/kg before each tobacco smoke exposure, 3 weeks, measured the day after
Protocol: Hartley guinea pigs weighing from 350 to 450 g were exposed to cigarette smoke for an hour per day, five days per week, for 3 weeks, by using a tobacco smoke exposer and an exposure chamber (Flow-pasttype nose-only inhalation chamber, Muenster).
The tobacco smoke exposure was preceded, 15-45 minutes in advance, by oral administration of the compound suspended in 0.5% methylcellulose (MC) at a dose of 10 mg/2 mL/kg or by oral administration of 0.5% MC at a dose of 2 mL/kg to a solvent group. To the non-treatment group, 0.5% MC was orally administered at a dose of 2 mL/kg, 15-45 minutes before air exposure. From 4 to 6 […] were carried out for each group. The airway resistances and neutrophil counts were measured the day after three weeks of the tobacco smoke exposure. The airway resistances were measured by double chamber plethysmography with a respiratory function tester (Puloms-1, M.I.P.S.) during wakefulness. The neutrophil counts were measured in the same manner as in Test Example 1. The effect of Compound A was evaluated by calculating the suppression ratio (%) in accordance with the following formula.
Suppression ratio=((measured value for the control group−measured value for the normal value)−(measured value for the Compound A group−measured value for the normal group))×100/(measured value for the control group−measured value for the normal value)

[2] = system: neutrophilia in the rat airway; test: Effect on neutrophilia in the rat airway (LPS inhalation, neutrophil count in bronchoalveolar washings); format: in vivo, Wister rats; details: oral 1 mg/kg, 3 mg/kg and 10 mg/kg, 30 min before LPS inhalation; washings about 5 hours after inhalation
Protocol: Male Wister rats weighing from 100 to 200 g were put in a clear plastic inhalation box for small animals (W30×H30×D30 cm), and 30 mL of a lipopolysaccharide solution (LPS E. coli 0.3 mg/mL saline) atomized to an average particle size of 2.0-6.0 μm was administered by inhalation from an ultrasonic nebulizer (TUR-3200, NIHON KOHDEN) for 30 minutes.
The lipopolisaccharide inhalation was preceded, 30 minutes in advance, by oral administration of Compound A suspended in 0.5% methylcellulose (MC) at doses of 1 mg/4 mL/kg, 3 mg/4 mL/kg and 10 mg/4 mL/kg, or by oral administration of 0.5% MC at a dose of 2 mL/kg to a solvent group. […]
About 5 hours after the lipopolisaccharide inhalation, bronchoalveolar washings were collected. […] The total number of leukocytes in the suspension was counted with a multichannel blood cell counter and designated as the total leukocyte count.
Further, after the cell suspension was adjusted to a total leukocyte count of 1×10^6 cells/mL, 100 μL of the suspension was centrifuged at room temperature at 400 rpm for 4 minutes in a cytocentrifuge (Thermo Shandon) and made into smears. The smears were stained with Diff-Quick (International Reagents Co., Ltd.), and monocytes, eosinophils and neutrophils were counted under an inverted microscope (×400) to about 500 cells. […]

Structure (SMILES): Cl.O=c1[nH]nc(OCCCc2ccc(Cl)cc2)c(NCc2cccnc2)c1Br [Compound A, 4-bromo-6-[3-(4-chlorophenyl)propoxy]-5-(3-pyridylmethylamino)-3(2H)-pyridazinone hydrochloride]
- suppression ratio of increase in airway resistance ([1]; double chamber plethysmography): 100%
- suppression ratio of neutrophilia (neutrophil count) [1]: 73%
- antineutrophilia effect in the rat airways (neutrophil counts in bronchoalveolar washings) [2]: had antineutrophilia effect

Source: patent US20080306080A1, “NEUTROPHILIA INHIBITOR” (Nissan Chemical Industries, Ltd., priority 2003, published 2008)
